The values below come from patent US20120121753A1, “COMPOSITIONS AND METHODS FOR PREVENTION AND TREATMENT OF OBESITY AND OBESITY RELATED METABOLIC SYNDROME” (JINIS BIOPHARMACEUTICALS CO., priority 2009, published 2012).

Each structure is given as a SMILES string.

One data set has as its system Male SD rats. As to the kind of experiment: Effect of FARM3 on diet-induced obesity (4 weeks, obese rats). The data set is classed as in vivo, rat. The settings on record: 4 weeks of treatment. The source says:
The 3 month old male SD rats were given high-fat feed (described above) for 8 weeks to develop diet-induced obesity with average body weight of 425 g. The rats were randomly divided into groups (n=14 per group) and received fermented yogurt or drug under continued high-fat diet conditions: 3179 group (high fat diet with yogurt fermented by L. acidophilus KCTC 3179 strain), FARM3 group (high fat diet with yogurt fermented by FARM3 mutant), Orlistat™ (high fat diet with Xenical™ in an amount of 200 mg/kg diet).
The 3 month old male SD rats were given high-fat feed for 8 weeks to develop diet-induced obesity with average body weight of 425 g. The diet-induced obese rats were administered daily yogurt fermented with wild-type Lactobacillus 3179 (∘, high fat diet with yogurt fermented by L. acidophilus KCTC3179 strain), yogurt fermented with FARM3 ([…], high fat diet with yogurt fermented by FARM3) or Orlistat™ (Δ, high fat diet with Xenical™ 200 mg/kg diet) under continued high-fat diet condition for 4 weeks.

Data set [1] has as its system gastric and pancreatic lipase. The settings on record: background statement; cited from earlier work.

Regarding `CCCCCCCCCCC[C@@H](C[C@@H]1OC(=O)[C@H]1CCCCCC)OC(=O)[C@H](CC(C)C)NC=O` [Orlistat™, Orlistat], in the data set on Male SD rats, the oily feces result is given as “oily feces”. Also, the “reduction of dietary fat absorption” value in data set [1] was “approximately 30%”.
